The values below are quoted from earlier work in patent US20250367112A1, “DRUG DELIVERY COMPOSITION FOR PROMOTING TISSUE REGENERATION AND KIT FOR DRUG DELIVERY COMPRISING SAME” (T&R BIOFAB CO., LTD., priority 2023, published 2025).

Structures can show the parent of a compound that is named as a salt. Where two headings read alike, the source gives them in different places.

Consider `CCCN1CCCC[C@H]1C(=O)Nc1c(C)cccc1C` [Ropivacaine HCl], for which the in vivo half-life is 4.2 ± 1 h (epidural injection) and 1.8 ± 0.7 h (intravenous injection).
